This note sets out measurements from PubChem BioAssay (NCI).

Experiment in all cases: growth of human tumour cells (NCI), 48 h
The subject of experiment [1] is M19-MEL melanoma.
Experiment [2] deals with DMS 114 small cell lung.
Experiment [3] deals with A549 NSCLC.
Experiment [4] relates to SK-MEL-5 melanoma.
The test system of experiment [5] is SK-MEL-2 melanoma.
Experiment [6] relates to OVCAR-5 ovarian.
For experiment [7], the system named is U251 CNS.
Experiment [8] has as its system SN12C renal.
Experiment [9] concerns HCC-2998 colon.
Experiment [10] relates to LOX IMVI melanoma.
Experiment [11] deals with DLD-1 colon.
In experiment [12] the test system is DMS 273 small cell lung.
Experiment [13] has as its system ACHN renal.
Experiment [14] relates to CAKI-1 renal.
Experiment [15] relates to NCI/ADR-RES ovarian.
Experiment [16] relates to HS 578T breast.

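All cell lines were grown in 96-well plates and treated with compound for 48 hours. Here, GI50 denotes the concentration required for 50% inhibition of growth. At the TGI there is no net growth.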

As for `O=C(NN1C(=O)C(Cl)C1c1ccc([N+](=O)[O-])cc1)c1ccccc1O` (configuration not stated), the TGI in [1], in experiment [2], in experiment [3], in experiment [4], in experiment [5] and in experiment [6] was above 100 µM in each case. Moreover, the TGI in [7] and in experiment [8] was above 100 µM each time.
For `Cn1nc2ccc3nccc(NCCNCCCl)c3c2n1`, the TGI in [1], in experiment [2], in experiment [9], in [10], in [11] and in [3] was above 100 µM throughout. Further, the TGI in experiment [12], in [5], in [6], in experiment [13] and in experiment [8] was above 100 µM throughout.
Turning to `CN(C)S(=O)(=O)c1cccc(-c2nc3sc4c(c3c(=O)[nH]2)CCCC4)c1`, the GI50 in experiment [14] is above 100 µM; in experiment [15] it was 2.83 µM; in experiment [4], above 100 µM; in [16] it was 2.98 µM. The TGI in experiment [14], in experiment [15], in [4] and in [16] was above 100 µM throughout.
